In ChEMBL document CHEMBL1137060, “Inactivation of S-adenosylhomocysteine hydrolase with haloethyl and dihalocyclopropyl esters derived from homoadenosine-6'-carboxylic acid” (Bioorg Med Chem Lett, 2004):

Assays:
Adenosylhomocysteinase [1] = biological target: T1, Adenosylhomocysteinase (Homo sapiens, UniProt P23526); experiment: Inhibition of human placental AdoHcy hydrolase
Target sequence in this assay (P23526 whole entry): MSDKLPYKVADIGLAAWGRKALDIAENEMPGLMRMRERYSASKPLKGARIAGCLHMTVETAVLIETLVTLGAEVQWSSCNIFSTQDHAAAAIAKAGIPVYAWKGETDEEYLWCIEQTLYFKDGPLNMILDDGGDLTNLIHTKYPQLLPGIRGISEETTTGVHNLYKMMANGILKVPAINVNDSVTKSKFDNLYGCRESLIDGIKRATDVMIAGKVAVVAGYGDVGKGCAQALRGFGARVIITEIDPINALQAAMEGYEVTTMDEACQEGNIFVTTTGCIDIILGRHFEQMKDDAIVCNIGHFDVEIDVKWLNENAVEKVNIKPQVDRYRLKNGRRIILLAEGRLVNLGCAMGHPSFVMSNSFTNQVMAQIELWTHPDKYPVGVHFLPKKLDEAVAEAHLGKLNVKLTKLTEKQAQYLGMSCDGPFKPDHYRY

Adenosylhomocysteinase [2] = biological target: T1, Adenosylhomocysteinase; experiment: Inactivation of human placental AdoHcy hydrolase
Target sequence in this assay (P23526 2-432 limits assumed): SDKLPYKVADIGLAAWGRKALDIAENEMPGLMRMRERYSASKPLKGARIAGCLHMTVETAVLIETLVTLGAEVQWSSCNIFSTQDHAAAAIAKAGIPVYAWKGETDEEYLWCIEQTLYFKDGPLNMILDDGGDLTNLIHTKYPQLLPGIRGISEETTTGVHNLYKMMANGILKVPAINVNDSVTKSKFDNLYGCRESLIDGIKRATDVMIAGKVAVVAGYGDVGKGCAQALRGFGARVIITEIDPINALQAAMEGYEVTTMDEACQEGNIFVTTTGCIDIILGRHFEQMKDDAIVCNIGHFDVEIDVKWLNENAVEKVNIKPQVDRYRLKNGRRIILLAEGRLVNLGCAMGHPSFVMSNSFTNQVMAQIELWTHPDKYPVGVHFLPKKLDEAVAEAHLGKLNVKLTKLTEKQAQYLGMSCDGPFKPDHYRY

| Ki (Adenosylhomocysteinase [1]) [µM] | K inact (Adenosylhomocysteinase [2]) [min⁻¹] | SMILES |
| --- | --- | --- |
| 17 | 0.008 | Nc1ncnc2c1ncn2C1O[C@H](CC(=O)OC2CC2(F)F)C(O)[C@H]1O (single isomer, unassigned) |
| 750 | 0.09 | Nc1ncnc2c1ncn2C1O[C@H](CC(=O)OC2CC2(Cl)Cl)C(O)[C@H]1O (single isomer, unassigned) |
| 302 | 0.43 | Nc1ncnc2c1ncn2C1O[C@H](CC(=O)OCCCl)C(O)[C@H]1O (single isomer, unassigned) |
| 75 | 0.19 | Nc1ncnc2c1ncn2C1O[C@H](CC(=O)OCCF)C(O)[C@H]1O (single isomer, unassigned) |
